Experimental findings from the supplement of paper PMC12076712 are described below.

± gives the standard deviation of the averaged measurements. Where only a bound is given, the exact number is not on record here.

The target in one experiment is UniProt Q5TCX8. As to the kind of experiment: pIC50, kinobeads binding competition. To be noted: cell material: Jurkat lysate.
Another experiment has as its target T1, MASTL (UniProt Q96GX5).
T1 sequence (whole entry): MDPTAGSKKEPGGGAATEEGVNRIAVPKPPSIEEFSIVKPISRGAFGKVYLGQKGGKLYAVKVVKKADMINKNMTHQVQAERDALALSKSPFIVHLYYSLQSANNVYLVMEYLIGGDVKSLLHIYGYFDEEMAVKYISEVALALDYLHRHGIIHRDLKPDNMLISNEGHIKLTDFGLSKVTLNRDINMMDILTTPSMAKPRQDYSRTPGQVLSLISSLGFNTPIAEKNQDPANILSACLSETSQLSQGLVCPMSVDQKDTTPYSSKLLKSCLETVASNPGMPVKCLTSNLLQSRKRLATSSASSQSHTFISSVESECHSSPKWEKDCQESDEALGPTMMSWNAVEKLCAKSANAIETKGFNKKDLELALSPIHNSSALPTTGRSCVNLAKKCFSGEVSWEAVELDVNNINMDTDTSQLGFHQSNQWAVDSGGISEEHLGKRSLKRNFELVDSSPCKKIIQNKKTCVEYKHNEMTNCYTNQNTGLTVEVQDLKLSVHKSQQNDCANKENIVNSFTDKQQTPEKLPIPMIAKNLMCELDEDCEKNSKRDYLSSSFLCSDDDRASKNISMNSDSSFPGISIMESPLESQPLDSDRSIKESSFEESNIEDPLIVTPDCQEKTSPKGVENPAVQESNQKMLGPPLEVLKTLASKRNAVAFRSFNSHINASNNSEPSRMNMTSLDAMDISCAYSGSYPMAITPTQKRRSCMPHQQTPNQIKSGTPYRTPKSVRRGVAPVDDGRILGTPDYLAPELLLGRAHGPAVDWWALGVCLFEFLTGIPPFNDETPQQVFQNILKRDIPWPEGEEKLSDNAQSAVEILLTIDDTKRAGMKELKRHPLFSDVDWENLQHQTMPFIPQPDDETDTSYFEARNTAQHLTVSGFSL
Kind of experiment: pIC50, kinobeads binding competition. The following applies: cell material: Jurkat lysate.

A further experiment has as its target TRRAP (UniProt Q9Y4A5). As to the kind of experiment: pIC50, kinobeads binding competition. The following applies: cell material: Jurkat lysate.
In the next experiment the target is T2, PBK (UniProt Q96KB5).
T2 sequence (whole entry): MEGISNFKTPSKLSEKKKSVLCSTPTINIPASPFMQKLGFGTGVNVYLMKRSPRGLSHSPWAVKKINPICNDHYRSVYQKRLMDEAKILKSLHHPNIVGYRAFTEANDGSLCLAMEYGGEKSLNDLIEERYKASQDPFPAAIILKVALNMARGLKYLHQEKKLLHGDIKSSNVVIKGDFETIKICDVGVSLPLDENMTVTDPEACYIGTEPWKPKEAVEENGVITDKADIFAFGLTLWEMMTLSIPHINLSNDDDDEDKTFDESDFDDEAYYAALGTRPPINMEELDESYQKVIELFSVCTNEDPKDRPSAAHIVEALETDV
As to the kind of experiment: pIC50, kinobeads binding competition. The following applies: cell material: Jurkat lysate.

For the next experiment, the target named is PDIK1L (UniProt Q8N165). As to the kind of experiment: pIC50, kinobeads binding competition. The following applies: cell material: Jurkat lysate.
For a further experiment, the target named is MAST4 (UniProt O15021). Kind of experiment: pIC50, kinobeads binding competition. The following applies: cell material: Jurkat lysate.
A further experiment has as its target PIK3R4 (UniProt Q99570). Kind of experiment: pIC50, kinobeads binding competition. The following applies: cell material: Jurkat lysate.
The next experiment deals with T3, KSR1 (UniProt Q8IVT5).
T3 sequence (whole entry): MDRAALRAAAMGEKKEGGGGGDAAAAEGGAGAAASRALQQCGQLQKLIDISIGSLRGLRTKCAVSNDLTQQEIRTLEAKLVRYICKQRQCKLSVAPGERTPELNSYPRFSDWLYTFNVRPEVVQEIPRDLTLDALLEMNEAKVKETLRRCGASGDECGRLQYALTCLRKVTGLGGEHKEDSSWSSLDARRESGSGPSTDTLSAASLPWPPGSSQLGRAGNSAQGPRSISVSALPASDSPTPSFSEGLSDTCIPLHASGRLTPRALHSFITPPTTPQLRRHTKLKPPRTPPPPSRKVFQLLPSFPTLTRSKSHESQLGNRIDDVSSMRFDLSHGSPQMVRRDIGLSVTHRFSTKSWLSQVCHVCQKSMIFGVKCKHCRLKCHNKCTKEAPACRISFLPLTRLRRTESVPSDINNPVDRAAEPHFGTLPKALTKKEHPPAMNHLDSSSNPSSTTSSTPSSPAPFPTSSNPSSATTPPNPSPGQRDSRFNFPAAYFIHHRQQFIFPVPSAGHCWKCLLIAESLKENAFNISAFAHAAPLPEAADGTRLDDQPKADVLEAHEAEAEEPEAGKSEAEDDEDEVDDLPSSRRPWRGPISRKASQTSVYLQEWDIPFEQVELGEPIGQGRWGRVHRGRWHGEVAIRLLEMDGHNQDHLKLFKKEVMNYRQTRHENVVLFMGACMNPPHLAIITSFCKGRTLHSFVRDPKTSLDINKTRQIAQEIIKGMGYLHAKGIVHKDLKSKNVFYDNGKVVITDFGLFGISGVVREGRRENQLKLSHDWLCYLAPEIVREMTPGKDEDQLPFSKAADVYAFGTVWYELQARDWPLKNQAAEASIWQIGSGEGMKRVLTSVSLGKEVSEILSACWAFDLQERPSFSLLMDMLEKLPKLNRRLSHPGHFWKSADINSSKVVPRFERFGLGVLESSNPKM
As to the kind of experiment: pIC50, kinobeads binding competition. The following applies: cell material: Jurkat lysate.

The target of the next experiment is MAST3 (UniProt O60307). Kind of experiment: pIC50, kinobeads binding competition. To be noted: cell material: Jurkat lysate.
The target in a further experiment is T4, PIP4K2A (UniProt P48426).
T4 sequence (whole entry): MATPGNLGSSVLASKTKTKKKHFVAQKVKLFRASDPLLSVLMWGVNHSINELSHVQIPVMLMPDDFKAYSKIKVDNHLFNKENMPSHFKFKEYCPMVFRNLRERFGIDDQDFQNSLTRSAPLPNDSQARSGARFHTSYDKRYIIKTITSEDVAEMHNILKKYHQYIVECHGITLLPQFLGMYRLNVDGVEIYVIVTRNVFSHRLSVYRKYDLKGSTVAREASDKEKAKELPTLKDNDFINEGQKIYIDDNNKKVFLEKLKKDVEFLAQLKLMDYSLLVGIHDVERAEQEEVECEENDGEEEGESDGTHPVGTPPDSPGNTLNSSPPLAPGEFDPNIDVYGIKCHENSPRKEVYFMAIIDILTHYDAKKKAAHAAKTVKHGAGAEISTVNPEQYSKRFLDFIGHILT
Kind of experiment: pIC50, kinobeads binding competition. The following applies: cell material: Jurkat lysate.

The target of the next experiment is CDK10 (UniProt Q15131). Kind of experiment: pIC50, kinobeads binding competition. The following applies: cell material: Jurkat lysate.
Another experiment has as its target MAPKAPK3 (UniProt Q16644). Kind of experiment: pIC50, kinobeads binding competition. To be noted: cell material: Jurkat lysate.
The next experiment addresses SPR (UniProt P35270). Kind of experiment: pIC50, competition of probe 3 labelling in live cells. To be noted: cell material: Jurkat cells.

MAPKAPK3, sequence (Q16644 whole entry, looked up): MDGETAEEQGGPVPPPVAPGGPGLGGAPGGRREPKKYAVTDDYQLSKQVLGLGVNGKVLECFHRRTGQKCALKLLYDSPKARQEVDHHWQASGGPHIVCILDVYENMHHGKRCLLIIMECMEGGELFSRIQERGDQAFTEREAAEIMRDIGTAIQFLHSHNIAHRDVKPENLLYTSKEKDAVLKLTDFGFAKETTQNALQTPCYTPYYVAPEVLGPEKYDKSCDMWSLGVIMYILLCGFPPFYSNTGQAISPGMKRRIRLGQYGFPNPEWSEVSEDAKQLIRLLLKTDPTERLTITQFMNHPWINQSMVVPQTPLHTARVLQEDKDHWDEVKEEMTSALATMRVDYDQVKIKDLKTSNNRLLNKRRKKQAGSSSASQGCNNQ
PDIK1L, sequence (Q8N165 whole entry): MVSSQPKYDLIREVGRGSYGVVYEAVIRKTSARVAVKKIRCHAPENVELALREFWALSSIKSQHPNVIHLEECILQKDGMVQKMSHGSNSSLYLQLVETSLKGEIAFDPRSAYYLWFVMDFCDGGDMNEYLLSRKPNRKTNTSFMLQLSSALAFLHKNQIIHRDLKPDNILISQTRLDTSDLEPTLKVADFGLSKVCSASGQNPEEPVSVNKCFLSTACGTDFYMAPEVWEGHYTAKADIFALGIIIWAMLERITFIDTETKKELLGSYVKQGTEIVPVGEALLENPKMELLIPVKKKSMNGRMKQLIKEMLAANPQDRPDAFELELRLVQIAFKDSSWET
TRRAP, sequence (Q9Y4A5 whole entry): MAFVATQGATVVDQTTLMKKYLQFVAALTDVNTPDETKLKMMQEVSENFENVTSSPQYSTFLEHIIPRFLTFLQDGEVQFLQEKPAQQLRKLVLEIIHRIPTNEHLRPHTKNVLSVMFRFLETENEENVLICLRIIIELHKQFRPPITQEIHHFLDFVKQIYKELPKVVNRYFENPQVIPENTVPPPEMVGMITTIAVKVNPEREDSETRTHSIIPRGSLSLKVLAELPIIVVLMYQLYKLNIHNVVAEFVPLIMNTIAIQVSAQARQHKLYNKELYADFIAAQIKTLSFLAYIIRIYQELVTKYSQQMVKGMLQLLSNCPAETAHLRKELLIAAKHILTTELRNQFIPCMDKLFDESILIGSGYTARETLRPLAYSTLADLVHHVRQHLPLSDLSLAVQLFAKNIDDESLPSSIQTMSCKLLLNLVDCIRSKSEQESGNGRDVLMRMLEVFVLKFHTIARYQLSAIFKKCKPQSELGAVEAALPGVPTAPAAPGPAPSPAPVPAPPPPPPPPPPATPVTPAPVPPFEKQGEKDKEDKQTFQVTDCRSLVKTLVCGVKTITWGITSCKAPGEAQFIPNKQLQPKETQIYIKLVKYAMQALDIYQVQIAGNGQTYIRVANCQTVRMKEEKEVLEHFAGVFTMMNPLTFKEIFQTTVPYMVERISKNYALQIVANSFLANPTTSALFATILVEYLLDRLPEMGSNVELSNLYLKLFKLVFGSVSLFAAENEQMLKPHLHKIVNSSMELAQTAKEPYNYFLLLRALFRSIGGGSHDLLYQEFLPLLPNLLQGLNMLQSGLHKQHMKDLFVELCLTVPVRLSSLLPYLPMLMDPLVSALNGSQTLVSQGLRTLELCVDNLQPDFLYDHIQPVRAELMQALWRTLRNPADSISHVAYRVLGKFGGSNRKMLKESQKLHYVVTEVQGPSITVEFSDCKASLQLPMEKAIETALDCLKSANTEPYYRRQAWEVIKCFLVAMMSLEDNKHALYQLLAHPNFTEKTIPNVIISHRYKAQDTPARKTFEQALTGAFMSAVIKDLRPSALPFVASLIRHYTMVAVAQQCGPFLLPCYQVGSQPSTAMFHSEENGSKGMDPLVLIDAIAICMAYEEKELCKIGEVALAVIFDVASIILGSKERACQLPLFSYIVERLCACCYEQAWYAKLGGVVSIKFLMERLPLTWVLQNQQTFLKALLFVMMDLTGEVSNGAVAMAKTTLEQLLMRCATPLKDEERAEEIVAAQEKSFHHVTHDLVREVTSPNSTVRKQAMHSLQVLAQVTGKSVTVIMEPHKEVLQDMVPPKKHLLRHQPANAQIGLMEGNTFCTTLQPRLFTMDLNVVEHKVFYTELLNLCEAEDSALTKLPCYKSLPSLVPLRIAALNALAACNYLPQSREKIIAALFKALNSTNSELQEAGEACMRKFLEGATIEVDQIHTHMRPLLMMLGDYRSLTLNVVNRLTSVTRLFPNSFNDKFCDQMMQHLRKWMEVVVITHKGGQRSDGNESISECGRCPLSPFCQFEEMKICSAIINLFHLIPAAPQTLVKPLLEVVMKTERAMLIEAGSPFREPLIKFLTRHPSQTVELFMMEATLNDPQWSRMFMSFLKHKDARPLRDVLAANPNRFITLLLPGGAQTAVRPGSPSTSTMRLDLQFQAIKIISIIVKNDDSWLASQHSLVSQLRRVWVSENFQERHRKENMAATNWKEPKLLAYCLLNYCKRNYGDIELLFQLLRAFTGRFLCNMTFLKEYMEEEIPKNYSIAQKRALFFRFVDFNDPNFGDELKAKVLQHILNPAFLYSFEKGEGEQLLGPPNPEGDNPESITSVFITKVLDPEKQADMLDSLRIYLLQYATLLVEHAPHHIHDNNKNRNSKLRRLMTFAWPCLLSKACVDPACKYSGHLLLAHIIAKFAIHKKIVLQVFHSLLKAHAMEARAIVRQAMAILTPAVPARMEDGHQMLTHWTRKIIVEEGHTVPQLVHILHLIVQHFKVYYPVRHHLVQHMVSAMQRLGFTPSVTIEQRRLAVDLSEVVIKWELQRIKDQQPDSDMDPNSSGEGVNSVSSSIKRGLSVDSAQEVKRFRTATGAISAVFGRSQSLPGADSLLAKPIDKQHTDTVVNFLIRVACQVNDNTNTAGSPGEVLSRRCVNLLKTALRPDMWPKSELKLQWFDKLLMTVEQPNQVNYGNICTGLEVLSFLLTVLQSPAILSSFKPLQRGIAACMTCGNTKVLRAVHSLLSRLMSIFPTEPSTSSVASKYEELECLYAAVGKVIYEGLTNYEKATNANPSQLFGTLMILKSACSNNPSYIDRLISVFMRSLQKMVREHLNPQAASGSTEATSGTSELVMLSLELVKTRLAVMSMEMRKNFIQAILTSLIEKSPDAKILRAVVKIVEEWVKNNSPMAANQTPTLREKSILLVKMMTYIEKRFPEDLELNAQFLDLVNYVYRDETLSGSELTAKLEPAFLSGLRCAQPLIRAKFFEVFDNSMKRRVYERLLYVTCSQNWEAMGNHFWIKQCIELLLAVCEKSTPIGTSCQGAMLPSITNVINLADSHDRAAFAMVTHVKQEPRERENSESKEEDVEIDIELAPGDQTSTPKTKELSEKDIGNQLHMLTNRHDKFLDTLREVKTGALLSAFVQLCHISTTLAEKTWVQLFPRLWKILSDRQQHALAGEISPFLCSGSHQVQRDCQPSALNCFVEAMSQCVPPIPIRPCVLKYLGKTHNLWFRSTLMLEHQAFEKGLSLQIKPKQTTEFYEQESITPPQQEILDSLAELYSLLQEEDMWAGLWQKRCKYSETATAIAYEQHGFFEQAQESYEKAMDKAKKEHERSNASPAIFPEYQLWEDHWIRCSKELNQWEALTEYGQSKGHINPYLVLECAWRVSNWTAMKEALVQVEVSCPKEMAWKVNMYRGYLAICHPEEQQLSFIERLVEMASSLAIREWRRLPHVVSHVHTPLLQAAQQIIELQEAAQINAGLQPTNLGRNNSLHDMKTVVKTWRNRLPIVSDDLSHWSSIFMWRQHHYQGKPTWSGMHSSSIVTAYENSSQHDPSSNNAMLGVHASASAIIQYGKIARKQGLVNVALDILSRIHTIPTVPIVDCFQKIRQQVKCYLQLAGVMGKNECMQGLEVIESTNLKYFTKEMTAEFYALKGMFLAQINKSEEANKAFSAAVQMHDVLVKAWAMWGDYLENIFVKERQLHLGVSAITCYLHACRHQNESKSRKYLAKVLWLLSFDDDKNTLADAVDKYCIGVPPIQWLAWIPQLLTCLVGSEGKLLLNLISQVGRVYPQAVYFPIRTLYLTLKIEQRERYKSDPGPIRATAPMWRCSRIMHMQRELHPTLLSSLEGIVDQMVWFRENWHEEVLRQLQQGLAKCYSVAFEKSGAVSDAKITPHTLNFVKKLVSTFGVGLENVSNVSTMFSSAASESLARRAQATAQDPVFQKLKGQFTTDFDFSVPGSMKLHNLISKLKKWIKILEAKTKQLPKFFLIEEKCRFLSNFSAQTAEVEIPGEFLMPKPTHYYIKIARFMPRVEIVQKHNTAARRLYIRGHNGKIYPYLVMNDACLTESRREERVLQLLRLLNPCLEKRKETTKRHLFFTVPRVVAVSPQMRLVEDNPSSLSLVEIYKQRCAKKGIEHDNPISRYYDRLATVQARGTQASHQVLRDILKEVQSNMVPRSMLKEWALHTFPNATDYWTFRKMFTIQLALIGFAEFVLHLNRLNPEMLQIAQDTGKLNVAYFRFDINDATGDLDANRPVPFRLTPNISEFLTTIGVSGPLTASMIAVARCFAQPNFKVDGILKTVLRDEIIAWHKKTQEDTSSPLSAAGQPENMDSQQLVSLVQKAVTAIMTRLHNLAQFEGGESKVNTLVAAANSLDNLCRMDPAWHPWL
SPR, sequence (P35270 whole entry, looked up): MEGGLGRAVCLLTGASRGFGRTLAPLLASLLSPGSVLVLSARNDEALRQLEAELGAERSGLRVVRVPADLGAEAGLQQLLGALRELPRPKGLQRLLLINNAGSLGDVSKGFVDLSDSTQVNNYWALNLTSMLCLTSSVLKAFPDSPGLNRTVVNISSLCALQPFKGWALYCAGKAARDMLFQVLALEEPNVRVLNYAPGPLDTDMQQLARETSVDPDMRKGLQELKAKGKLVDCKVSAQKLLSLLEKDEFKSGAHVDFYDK

Consider `Cc1nc(Nc2ncc(C(=O)Nc3c(C)cccc3Cl)s2)cc(N2CCN(CCO)CC2)n1` [dasatinib], for which the pIC50 (as a rule, the IC50 on a negative log10 scale, so that one unit is a factor of ten) at UniProt Q5TCX8 is below 4.52; on MASTL it was below 4.52; at TRRAP, below 4.52; at PBK, below 4.52; at PDIK1L, 4.89 ± 0.099; on MAST4 it was below 4.52. Besides, the pIC50 is below 4.52 on PIK3R4; 4.72 at KSR1; below 4.52 at MAST3; below 4.52 on PIP4K2A; below 4.52 at CDK10; 6.74 on MAPKAPK3.

For `Cc1c(C(=O)N2CCN(CC(F)(F)F)CC2)cnn1-c1nn2cccc2c(=O)[nH]1` [QM385], the pIC50 at SPR is 7.61 ± 0.34.
